Assay results reported in ChEMBL document CHEMBL1201862, “PubChem BioAssay data set” (2004).
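In this assay, cells in 96-well plates receive the compound at five concentrations for 48 hours. Endpoints are linearly interpolated between the surrounding concentrations. The concentration for 50% growth inhibition is given as GI50.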 The source made the active and inactive calls. No stated cut-off is given here; in the data, active = GI50 up to about 1.1 µM and inactive = higher.

How the values were obtained:
Test in all cases: growth of human tumour cells (NCI), 48 h
ACHN = system: ACHN
CCRF-CEM = system: CCRF-CEM
DU-145 = system: DU-145
HOP-92 = system: HOP-92
Hs-578T = system: Hs-578T
IGROV-1 = system: IGROV-1
MCF7 = system: MCF7
MOLT-4 = system: MOLT-4
Malme-3M = system: Malme-3M
NCI-H226 = system: NCI-H226
NCI-H522 = system: NCI-H522
NCI/ADR-RES = system: NCI/ADR-RES
PC-3 = system: PC-3
RXF 393 = system: RXF 393
SF-268 = system: SF-268
SK-MEL-2 = system: SK-MEL-2
SK-OV-3 = system: SK-OV-3
SN12C = system: SN12C
SNB-75 = system: SNB-75
SR = system: SR

Row | Structure (SMILES) | GI50 (ACHN) | GI50 (CCRF-CEM) | GI50 (DU-145) | GI50 (HOP-92) | GI50 (Hs-578T) | GI50 (IGROV-1) | GI50 (MCF7) | GI50 (MOLT-4) | GI50 (Malme-3M) | GI50 (NCI-H226) | GI50 (NCI-H522) | GI50 (NCI/ADR-RES) | GI50 (PC-3) | GI50 (RXF 393) | GI50 (SF-268) | GI50 (SK-MEL-2) | GI50 (SK-OV-3) | GI50 (SN12C) | GI50 (SNB-75) | GI50 (SR)
1 | COC(=O)c1cc2c(n1S(=O)(=O)c1ccc(C)cc1)C(=O)C(=O)c1[nH]cc(C(=O)OCc3ccccc3)c1-2 | 0.233 µM (active) | 0.0873 µM (active) | 0.138 µM (active) | 0.236 µM (active) | 0.43 µM (active) | 0.197 µM (active) | 0.0668 µM (active) | 0.0647 µM (active) | 0.0321 µM (active) | 0.199 µM (active) | 0.094 µM (active) | 0.583 µM (active) | 0.264 µM (active) | 0.0973 µM (active) | 0.221 µM (active) | 0.112 µM (active) | 0.871 µM (active) | 0.08 µM (active) | 0.147 µM (active) | 0.0906 µM (active)
2 | CC(C)=CC(=O)c1[nH]c2ccccc2c1CC(=O)NCCc1c[nH]cn1 | > 100 µM (inactive) | > 100 µM (inactive) | > 100 µM (inactive) | > 100 µM (inactive) | > 100 µM (inactive) | > 100 µM (inactive) | > 100 µM (inactive) | > 100 µM (inactive) | > 100 µM (inactive) | > 100 µM (inactive) | > 100 µM (inactive) | > 100 µM (inactive) | > 100 µM (inactive) | > 100 µM (inactive) | > 100 µM (inactive) | > 100 µM (inactive) | > 100 µM (inactive) | > 100 µM (inactive) | > 100 µM (inactive) | > 100 µM (inactive)
3 | COC(=O)c1ccccc1C1CN=NC12Cc1c(ccc3c1CCC3)C2=O (stereo not given) | 72.4 µM (inactive) | 49.5 µM (inactive) | > 100 µM (inactive) | 27.4 µM (inactive) | 71.8 µM (inactive) | 88.7 µM (inactive) | 50.9 µM (inactive) | 30.5 µM (inactive) | > 100 µM (inactive) | 41.5 µM (inactive) | 0.635 µM (active) | 31.1 µM (inactive) | 43.8 µM (inactive) | 48.6 µM (inactive) | > 100 µM (inactive) | 35.1 µM (inactive) | > 100 µM (inactive) | 95.3 µM (inactive) | 51.8 µM (inactive) | 46.2 µM (inactive)
4 | CCCCCC/C=C1\CCC(CN(C)C)C1=O (stereo not given) | 9.64 µM (inactive) | 1.83 µM (inactive) | 20.1 µM (inactive) | 11.4 µM (inactive) | 7 µM (inactive) | 10.5 µM (inactive) | 1.86 µM (inactive) | 3.05 µM (inactive) | 7.23 µM (inactive) | 18.7 µM (inactive) | 2.85 µM (inactive) | 7.38 µM (inactive) | 11.5 µM (inactive) | 3.51 µM (inactive) | 5.35 µM (inactive) | 13 µM (inactive) | 20.3 µM (inactive) | 3.74 µM (inactive) | 11 µM (inactive) | 1.85 µM (inactive)
5 | COc1ccc(CCCCNCc2cccc(CNCCCCc3ccc(OC)cc3)c2)cc1 | 1.83 µM (inactive) | 1.67 µM (inactive) | 1.88 µM (inactive) | 1.44 µM (inactive) | 1.69 µM (inactive) | 1.74 µM (inactive) | 1.54 µM (inactive) | 2.18 µM (inactive) | 2 µM (inactive) | 0.385 µM (active) | 1.88 µM (inactive) | 1.8 µM (inactive) | 1.79 µM (inactive) | 1.64 µM (inactive) | 1.76 µM (inactive) | 1.91 µM (inactive) | 2.08 µM (inactive) | 2.04 µM (inactive) | 1.76 µM (inactive) | 1.79 µM (inactive)
6 | O=c1oc2ccccc2cc1-c1nnc(-c2ccccc2)s1 | 32 µM (inactive) | 40.3 µM (inactive) | > 100 µM (inactive) | > 100 µM (inactive) | > 64.4 µM (inactive) | 22.4 µM (inactive) | 7.67 µM (inactive) | 19.1 µM (inactive) | > 100 µM (inactive) | > 56 µM (inactive) | 13.7 µM (inactive) | 12.1 µM (inactive) | > 76.6 µM (inactive) | 17.1 µM (inactive) | > 57.9 µM (inactive) | > 48.8 µM (inactive) | 48.6 µM (inactive) | 60.5 µM (inactive) | 15.5 µM (inactive) | 0.971 µM (active)
7 | COc1c2c(cc3c1C1(O)Cc4ccc5c(c4C[N+]1(C)CC3)OCO5)OCO2 (stereo not given) | > 100 µM (inactive) | 82.8 µM (inactive) | > 100 µM (inactive) | > 100 µM (inactive) | > 100 µM (inactive) | > 100 µM (inactive) | > 100 µM (inactive) | 50.8 µM (inactive) | > 100 µM (inactive) | > 100 µM (inactive) | 72.9 µM (inactive) | > 100 µM (inactive) | 73.5 µM (inactive) | 43.9 µM (inactive) | > 100 µM (inactive) | > 100 µM (inactive) | > 100 µM (inactive) | > 100 µM (inactive) | > 100 µM (inactive) | 77.8 µM (inactive)
8 | COc1ccc(/N=N/c2ccc3oc(=O)c(C(=O)Nc4ccc(OC)cc4)cc3c2)cc1 | 18.2 µM (inactive) | 4.89 µM (inactive) | 15.6 µM (inactive) | 18.4 µM (inactive) | 20.9 µM (inactive) | 16.1 µM (inactive) | 16.1 µM (inactive) | 6.15 µM (inactive) | 18.6 µM (inactive) | 13.1 µM (inactive) | 26.5 µM (inactive) | 16.2 µM (inactive) | 11 µM (inactive) | 27 µM (inactive) | 9.02 µM (inactive) | 14 µM (inactive) | 19.5 µM (inactive) | 14 µM (inactive) | 16.2 µM (inactive) | 12 µM (inactive)
9 | NC(=O)c1cn(C2OC(CO)C(O)C2O)c2nc[n+]([O-])c(N)c12 (stereo not given) | 0.0351 µM (active) | 0.1 µM (active) | 0.104 µM (active) | 0.67 µM (active) | 0.951 µM (active) | 1.05 µM (active) | 0.2 µM (active) | 0.104 µM (active) | 0.0398 µM (active) | 0.211 µM (active) | 1.36 µM (inactive) | 0.107 µM (active) | 0.178 µM (active) | 0.564 µM (active) | 0.23 µM (active) | 0.157 µM (active) | 0.0906 µM (active) | 0.0912 µM (active) | 0.13 µM (active) | 0.0509 µM (active)
10 | [O-][n+]1ccc(NO)c2ccccc21 | 0.796 µM (active) | 0.492 µM (active) | 1.5 µM (inactive) | 2.07 µM (inactive) | 2.09 µM (inactive) | 1.65 µM (inactive) | 0.883 µM (active) | 0.6 µM (active) | 6.5 µM (inactive) | 1.87 µM (inactive) | 1.51 µM (inactive) | 1.54 µM (inactive) | 1.51 µM (inactive) | 0.592 µM (active) | 0.565 µM (active) | 1.77 µM (inactive) | 0.518 µM (active) | 1.38 µM (inactive) | 0.516 µM (active) | 0.106 µM (active)
11 | CN(C)c1ccc2cc3ccc(N(C)C)cc3nc2c1 [ACRIDINE ORANGE] | 0.611 µM (active) | 0.678 µM (active) | 1.32 µM (inactive) | 4.32 µM (inactive) | 2.5 µM (inactive) | 2.2 µM (inactive) | 0.714 µM (active) | 0.134 µM (active) | 3.86 µM (inactive) | 5.09 µM (inactive) | 1.58 µM (inactive) | 1.43 µM (inactive) | 2.04 µM (inactive) | 3.74 µM (inactive) | 1.52 µM (inactive) | 6.18 µM (inactive) | 5.85 µM (inactive) | 0.962 µM (active) | 2.1 µM (inactive) | 0.0849 µM (active)
